Measured values reported in publication PMC9919861, “Homoleptic Complexes of Heterocyclic Curcuminoids with Mg(II) and Cu(II): First Conformationally Heteroleptic Case, Crystal Structures, and Biological Properties” (Molecules, 2023).

Key:
[1] = system: MCF-7 (human mammary adenocarcinoma); test: Cytotoxicity, sulforhodamine B (SRB) microculture assay; type: cell-based; conditions: Homo sapiens
Procedure: (§1) The cytotoxicity of all compounds was tested against six cancer cell lines: U251 (human glioblastoma cell line), PC-3 (human prostate adenocarcinoma), K562 (human chronic myelogenous leukemia), HCT-15 (human colon adenocarcinoma), MCF-7 (human mammary adenocarcinoma), and SKLU-1 (human lung adenocarcinoma). Cell lines were supplied by the U.S. National Cancer Institute (NCI). The cell lines were cultured in an RPMI-1640 medium supplemented with 10% fetal bovine serum, […] L-glutamine, 10,000 units/mL penicillin G sodium, 10,000 µg/mL streptomycin sulfate, 25 µg/mL amphotericin B (Invitrogen/Gibco™, Thermo Fisher Scientific, Waltham, MA, USA), and 1% non-essential amino acids (Gibco). They were maintained at 37 °C in a humidified atmosphere with 5% CO2. […] The human tumor cytotoxicity was determined using the protein-binding dye sulforhodamine B (SRB) in a microculture assay to measure cell growth, as described in the protocols established by the NCI [39, 40, 41].

[2] = system: PC-3 (human prostate adenocarcinoma); test: as above; type: cell-based; conditions: Homo sapiens, 25 μM, read-out: % of Inhibition (cytotoxic screening)
Procedure: as §1

[3] = system: U251 (human glioblastoma cell line); test: as above; type: cell-based; conditions: Homo sapiens
Procedure: as §1

[4] = system: K562 (human chronic myelogenous leukemia); test: as above; type: cell-based; conditions: Homo sapiens
Procedure: as §1

[5] = system: SKLU-1 (human lung adenocarcinoma); test: as above; type: cell-based; conditions: Homo sapiens
Procedure: as §1

[6] = system: HCT-15 (human colon adenocarcinoma); test: as above; type: cell-based; conditions: Homo sapiens
Procedure: as §1

[7] = system: lipid peroxidation in rat brain homogenate; test: Inhibition of lipid peroxidation (TBARS) in rat brain homogenate, FeSO4-induced; type: biochemical
Procedure: Adult male Wistar rats (200–250 g) were provided by the Instituto de Fisiología Celular, Universidad Nacional Autónoma de México (UNAM). The procedures and care of animals were conducted in conformity with the Mexican Official Norm for Animal Care and Handling NOM-062-ZOO-1999. They were maintained at 23 ± 2 °C on a 12/12 h light-dark cycle with ad libitum access to food and water.
Animal sacrifice was carried out avoiding unnecessary pain. The rats were sacrificed with CO2. The cerebral tissue (whole brain) was rapidly dissected and homogenized in phosphate-buffered saline (PBS) solution (0.2 g of KCl, 0.2 g of KH2PO4, 8 g of NaCl, and 2.16 g of NaHPO4.7H2O/L, pH adjusted to 7.4) as described elsewhere to produce a 1/10 (w/v) homogenate. The homogenate was centrifuged at 800 rcf (relative centrifugal field) for 10 min. The supernatant protein content was measured using Folin and Ciocalteu’s phenol reagent and adjusted with PBS at 2.666 mg of protein/mL.
As an index of lipid peroxidation, TBARS levels were measured using rat brain homogenates according to the method described by Ng and co-workers, with some modifications. A supernatant (375 µL) was added with 50 µL of 20 µM EDTA and 25 µL of each sample concentration dissolved in DMSO (25 µL of DMSO for the control group) and incubated at 37 °C for 30 min. The lipid peroxidation was started adding 50 µL of freshly prepared 100 µM FeSO4 solution (final concentration 10 µM) and incubated at 37 °C for 1h. The TBARS measurements were obtained as described by Ohkawa and co-workers, with some modifications. To each tube 500 µL of TBA reagent (0.5% 2-thiobarbituric acid in 0.05 N NaOH and 30% trichloroacetic acid, in 1:1 ratio) was added and the final suspension was cooled on ice for 10 min, centrifuged at 13,400 rcf for 5 min and heated at 80 °C in a water bath for 30 min. After cooling at room temperature, the absorbance of 200 µL of supernatant was measured at λ = 540 nm in a Microplate Reader Synergy/HT BIOTEK Instrument, Inc., Winooski, VT, USA. The concentration of TBARS was calculated by interpolation on a standard curve of tetra-methoxypropane (TMP) as a precursor of MDA [38]. Results are expressed as n moles of TBARS per mg of protein. The inhibition ratio (IR [%]) was calculated using the formula IR = (C − E) × 100/C, where C is the control absorbance and E is the sample absorbance. Butylated hydroxytoluene (BHT) and α tocopherol were used as positive standards. All data are presented as mean ± standard error (SEM). The data were analyzed by one-way analysis of variance (ANOVA) followed by Dunnett’s test for comparison against a control. Values of p ≤ 0.05 (*) and p ≤ 0.01 (**) were considered statistically significant.

[8] = Cytotoxicity towards healthy cell line; type: cell-based, monkey; conditions: monkey, COS-7 kidney cells; COS7; 25 μM; read-out: % of Inhibition (cytotoxic screening)
[9] = 25 μM, read-out: % of Inhibition (cytotoxic screening)

**Q.** With `Cn1cccc1/C=C/C(=O)/C=C(O)/C=C/c1cccn1C` [N-methyl-pyrCurc, N-methylpyrrolcurcumin] as the compound, how does the IC50 ([1]; MCF7) read?
**A.** 27.3 ± 4.3 µM

**Q.** What about the inhibition at 25 µM ([1]; MCF7, 25 μM, read-out: % of Inhibition (cytotoxic screening)) of the same compound?
**A.** 99.9%

**Q.** And the inhibition at 25 µM [2]?
**A.** 60.4%

**Q.** What about the IC50 ([3]; U-251) of the same compound?
**A.** 25.8 ± 2.7 µM

**Q.** What about the inhibition at 25 µM ([3]; U-251, 25 μM, read-out: % of Inhibition (cytotoxic screening)) of the same compound?
**A.** 52.8%

**Q.** What about the IC50 [4] of the same compound?
**A.** 12.9 ± 1 µM

**Q.** What about the inhibition at 25 µM [4, 9] of the same compound?
**A.** 65.8%

**Q.** What about the IC50 ([5]; SK-LU-1) of the same compound?
**A.** 13 ± 1.9 µM

**Q.** And the inhibition at 25 µM ([5]; SK-LU-1, 25 μM, read-out: % of Inhibition (cytotoxic screening))?
**A.** 100%

**Q.** What about the IC50 [6] of the same compound?
**A.** 22.4 ± 2.4 µM

**Q.** What about the inhibition at 25 µM [6, 9] of the same compound?
**A.** 18.1%

**Q.** What about the “% of Inhibition (lipoperoxidation screening)” value (from here on “% of Inhibition”) ([7]; concentration 1 (unit not given)) of the same compound?
**A.** 13.71%

**Q.** And the “% of Inhibition” value ([7]; concentration 10 (unit not given))?
**A.** 17.41%

**Q.** What about the “% of Inhibition” value ([7]; concentration 100 (unit not given)) of the same compound?
**A.** 84.75%

**Q.** What about the inhibition at 25 µM [8] of the same compound?
**A.** 100%
